Like-named read-outs stand apart in the source and are kept apart here.
Legend:
[1] = system: U-87 MG human glioblastoma cells; settings: MTT, 72 h, previously published data; cited from earlier work
Experimental: Table 4 Toxicity and IC50 values of five cyclotides and TMZ in SH-SY5Y, U-87 MG, and T-98G cell cultures. | column: IC50 (μM) ± S.D. || The IC50 values of natural and synthetic cyclotides, as well as TMZ, are provided in Table 4. […] The IC50 values were calculated using nonlinear regression analysis with dose-dependent inhibition and an inhibitor vs. no ... || Figure 5 Effect of natural and synthetic Kalata B1 on cell viability in SH-SY5Y, U-87MG, and T-98G cells cultures. The IC50 values for the cyclotides were determined using MTT assay after incubation with cells at increasing concentrations (0.1, 1, 5, and 10 μM) as compared to the control. Panel (A): SH-SY5Y and U-87 MG cells, and panel (B) T-98G and U-87 MG cells. Cultures (6000 cells per well in a 96-well plate), were treated with the cyclotide indicated, for 72 h, then MTT measured. Cell viability was calculated as a percentage of control cultures. IC50 values were calculated using the Best ... || (+ 4 further places)

[2] = system: TMZ-resistant cell line T-98G; settings: ref Lee 31, read-out: Range of TMZ IC50 values summarized in the literature; cited from earlier work
Source text: Symptoms of GBM include seizures, headaches, nausea, and memory loss, and the side effects of TMZ can not only intensify headaches and nausea but also include diarrhea, constipation, loss of appetite, and sores in the mouth and throat. TMZ is an oral DNA alkylating agent that induces cell cycle arrest at G2/M, and its cytotoxicity is mediated by the addition of methyl groups at N^7 and O^6 sites on guanines and the […] in genomic DNA. A thymine instead of a cytosine is inserted during the alkylation of the O^6 site on guanine, which can cause cell death during DNA replication. ...

[3] = system: T-98G human glioblastoma cells; assay: cells; settings: Homo sapiens, T98G, 72 h, read-out: IC50 (μM) ± S.D.
Experimental: (§1) SH-SY5Y human neuroblastoma cells (population doubling (PD) 20−24), T-98G, and U-87 MG human glioblastoma cells were removed from cryogenic storage, thawed rapidly in a water bath (37 °C) and reconstituted in 75 cm^2 flasks. For SH-SY5Y, the following media were used: Dulbecco’s modified Eagle’s medium/Nutrient F12 Ham (Sigma-Aldrich, Cat. No. D8437) containing 10% heat-inactivated fetal bovine serum, 4 mM L-glutamine, 100 U/mL penicillin, and 100 μg/mL streptomycin. For U-87 MG and T-98G Eagle’s minimal essential medium (ATCC: The Global Bioresource Center, Cat. No. ATCC 30-2003), containing 10% heat-inactivated fetal bovine serum, 4 mM L-glutamine, 100 U/mL penicillin, and 100 μg/mL streptomycin were used.
(§2) Cells were incubated at 37 °C in a humidified atmosphere of 5% CO2 and 95% air until recovered and ready for passaging (approximately 4 days). At between 80% and 90% confluence, the cells were trypsinized with warm (37 °C) sterile 0.5% Trypsin-EDTA (Thermo Fisher, Cat. No. 15400054) and passaged into 175 cm^2 flasks, where they were left to multiply until they reached 80−90% confluence. To plate cells: cultures were trypsinized, resuspended in 20 mL sterile PBS, counted using a cell counter (Olympus cell counter model R1), and plated in 96-well plates at an optimal density of 6000 cells/well in the designated culture media. The cells were left to adhere overnight before treatment the following day, when the culture medium was removed and replaced with the treatment medium. All incubations were conducted in triplicate wells and repeated at least three times (n = 3).
(§3) To calculate TMZ IC50 values in each cell line, TMZ was dissolved in DMSO at a stock concentration of 103 mM, which was then diluted into culture medium on the day of use, with the DMSO final concentration always less than 0.1%. The following concentrations of TMZ were used in the experiments: 0.5, 5, 50, 500, 2500, 5000 μM. The media were sterilized for each treatment media with a 0.22 μm filter before they were added to cell cultures. To determine the IC50 values for each cyclotide in each cell type, cyclotides were dissolved into 10% DMSO and then dilutions used to screen cyclotides with a final DMSO concentration of less than 0.1% The following concentrations of cyclotides were used: 0.1, 1, 5, 10 μM. For co-exposure experiments, a simultaneous exposure of cyclotide and TMZ at each respective dose was added to cell cultures (100 μL final volume per well).
(§4) In accordance with the methods developed by Mosmann and colleagues, the MTT assay was conducted using the Roche cell proliferation kit (Cat. No. 11465007001). Briefly, cells that are active can cleave MTT. The MTT is originally a yellow tetrazolium salt that undergoes a colorimetric change to purple formazan crystals, and the change in absorbance can be measured as an indicator of cell viability/proliferation. For these experiments, cells were plated into 96-well flat-bottom plates, as described in the cell culture above. […] To align with our previous work, experiments were conducted with a 72 h time frame for cytotoxicity evaluation.
(§5) After a 72 h incubation period, plates were removed from the incubator and 10 µL of MTT was added to each well. The plates were returned to the incubator for an additional 4 h, after which 100 µL of a solubilization solution was added to each well. The plates were returned to incubation overnight, and the next day absorbances were read at 570 nm on a Molecular Devices FlexStation 3 using SoftMax Pro Microplate Data Acquisition and Analysis Software (version 7.0.2).

[4] = system: U-87 MG human glioblastoma cells; assay: cells
Experimental: as §1, §2, §3, §4, §5

[5] = system: SH-SY5Y human neuroblastoma cells; settings: MTT, 72 h, previously published data; cited from earlier work
Experimental: Table 4 Toxicity and IC50 values of five cyclotides and TMZ in SH-SY5Y, U-87 MG, and T-98G cell cultures. | column: IC50 (μM) ± S.D. || Figure 5 Effect of natural and synthetic Kalata B1 on cell viability in SH-SY5Y, U-87MG, and T-98G cells cultures. The IC50 values for the cyclotides were determined using MTT assay after incubation with cells at increasing concentrations (0.1, 1, 5, and 10 μM) as compared to the control. Panel (A): SH-SY5Y and U-87 MG cells, and panel (B) T-98G and U-87 MG cells. Cultures (6000 cells per well in a 96-well plate), were treated with the cyclotide indicated, for 72 h, then MTT measured. Cell viability was calculated as a percentage of control cultures. IC50 values were calculated using the Best ... || To evaluate the cytotoxicity of plant-derived Kalata B1 and synthetic Kalata B1, MTT assays were performed with T-98G, U-87 MG, and SH-SY5Y cell cultures.

U-87 MG cells = assay: Phase contrast microscopy of U-87 MG cultures; format: cell-based, human; settings: 72 h, 150 µM TMZ alone or 0.5 µM synthetic Kalata B1 alone, 20× phase contrast

SMILES: Cn1nnc2c(C(N)=O)ncn2c1=O [TMZ, temozolomide]
- IC50 [1]: 2898 ± 6 µM
- IC50 [2]: 250 to 1580 µM
- IC50 [3]: 1160 ± 5.31 µM
- Cell death in MTT cell viability assay [4]: less than 15%
- IC50 ([4]; Homo sapiens, U-87 MG, 72 h, read-out: IC50 (μM) ± S.D.): 1617 ± 5.56 µM
- IC50 [5]: 393 ± 4.5 µM
- Morphological changes versus control cultures, single agent (U-87 MG cells): little differences

Reference: publication PMC11505038, “Kalata B1 Enhances Temozolomide Toxicity to Glioblastoma Cells” (Biomedicines, 2024)
